This passage reports Km results from patent US20120107903A1 (priority 2010, published 2012).

The assay concerns the target Ralstonia pickettii 12D FAD dependent oxidoreductase (SEQ ID NO:9), variant QYY, S327Q/S366Y/A473Y (Ralstonia pickettii, UniProt A0ABM9ITV6, A473Y/S327Q/S366Y). Format: biochemical. As to conditions: read-out: Km (Mal).

SMILES strings stand for the structures.

For orientation: Km means the substrate concentration at which the rate is half of its maximum. `OC[C@H]1O[C@H](O[C@H]2[C@H](O)[C@@H](O)C(O)O[C@@H]2CO)[C@H](O)[C@@H](O)[C@@H]1O` (stereo partly shown) [Mal, maltose]: the Km was > 100 mM.
